Measurements published in ChEMBL document CHEMBL2169792, “Synthesis of new 4-thiazolidinone-, pyrazoline-, and isatin-based conjugates with promising antitumor activity” (J Med Chem, 2012).

Tests used:
Assay type in all cases: functional
SK-MEL-5 = assay: Cytotoxicity against human SK-MEL-5 cells assessed as cell growth at 10 uM after 48 hrs by SRB assay; conditions: SK-MEL-5, 48 h, read-out: Activity
[1] = Cytotoxicity against human melanoma cells after 48 hrs by SRB assay; conditions: Melanoma cell; for CC50: read-out: LC50 (the source's name)
[2] = Cytotoxicity against human non-small cell lung cancer cells after 48 hrs by SRB assay; conditions: Cancer cell lines; for CC50: read-out: LC50 (the source's name)
[3] = Cytotoxicity against human breast cancer cells after 48 hrs by SRB assay; conditions: Cancer cell lines
[4] = Cytotoxicity against human leukemia cells after 48 hrs by SRB assay; conditions: Leukemia cell; for CC50: read-out: LC50 (the source's name)
[5] = Cytotoxicity against human colon cancer cells after 48 hrs by SRB assay; conditions: Cancer cell lines
[6] = Cytotoxicity against human ovarian cancer cells after 48 hrs by SRB assay; conditions: Cancer cell lines
[7] = Cytotoxicity against human prostate cancer cells after 48 hrs by SRB assay; conditions: Cancer cell lines
[8] = Cytotoxicity against human renal cancer cells after 48 hrs by SRB assay; conditions: Cancer cell lines
[9] = Cytotoxicity against human CNS cancer cells after 48 hrs by SRB assay; conditions: Cancer cell lines
CCRF-CEM = assay: Cytotoxicity against human CCRF-CEM cells assessed as cell growth at 10 uM after 48 hrs by SRB assay; conditions: read-out: Activity

Row | SMILES | GI50 [1] | TGI [1] | CC50 [1] | GI50 [2] | TGI [2] | CC50 [2] | GI50 [3] | LC50 (concentration causing 50% net cell kill) [3] | TGI [3] | GI50 [4] | TGI [4] | CC50 [4] | GI50 [5] | LC50 (concentration lethal to 50% of cells) [5] | TGI [5] | GI50 [6] | LC50 (concentration causing 50% net cell kill) [6] | TGI [6] | GI50 [7] | LC50 [7] | further results
1 | O=C1N=C(N2N=C(c3ccccc3)CC2c2ccccc2O)S/C1=C1/C(=O)Nc2ccc(Br)cc21 (configuration not stated) | 0.23 µM | 0.66 µM | 2.43 µM | 0.24 µM | 0.67 µM | 7.24 µM | 0.26 µM | 3.59 µM | 0.8 µM | 0.27 µM | 1.05 µM | 9.49 µM | 0.21 µM | 1.67 µM | 0.46 µM | 0.28 µM | 19 µM | 0.94 µM | 0.29 µM | 7.68 µM | growth at 10 µM (SK-MEL-5): -53.9%; TGI [7]: 0.93 µM; GI50 [8]: 0.23 µM; LC50 [8]: 2.55 µM; TGI [8]: 0.63 µM; GI50 [9]: 0.24 µM; LC50 (concentration giving 50% net cell kill) [9]: 4.12 µM; TGI [9]: 0.72 µM
2 | CN(C)c1ccc(C2CC(c3ccccc3)=NN2C2=NC(=O)/C(=C3\C(=O)Nc4ccc(Cl)cc43)S2)cc1 (configuration not stated) | 0.26 µM | 0.57 µM | 2.16 µM | 0.21 µM | 0.51 µM | 37.9 µM | 0.22 µM | 2.32 µM | 0.53 µM | 0.34 µM | 3.11 µM | 100 µM | 0.19 µM | 16.5 µM | 0.41 µM | 0.24 µM | 48.8 µM | 0.62 µM | 0.25 µM | 12.8 µM | growth at 10 µM (SK-MEL-5): -52.9%; TGI [7]: 0.69 µM; GI50 [8]: 0.19 µM; LC50 [8]: 15.3 µM; TGI [8]: 0.43 µM; GI50 [9]: 0.19 µM; LC50 (concentration giving 50% net cell kill) [9]: 1.63 µM; TGI [9]: 0.43 µM
3 | COc1ccc(-c2cc(-c3ccc(Cl)cc3)n(C3C(=O)Nc4ccc(Cl)cc43)n2)cc1 (configuration not stated) | 9.4 µM | 46.7 µM | 76.4 µM | 4.37 µM | 23.2 µM | 59.8 µM | 6.29 µM | 47.6 µM | 17.8 µM | 27.9 µM | 79.2 µM | 100 µM | 6.15 µM | 69.4 µM | 28.6 µM | 3.68 µM | 52.3 µM | 14.7 µM | 6.49 µM | 62.4 µM | growth at 10 µM (CCRF-CEM): 50.8%; TGI [7]: 20.3 µM; GI50 [8]: 3.75 µM; LC50 [8]: 42.4 µM; TGI [8]: 13.2 µM; GI50 [9]: 3.94 µM; LC50 (concentration giving 50% net cell kill) [9]: 42.2 µM; TGI [9]: 14.4 µM
4 | COc1ccc(-c2cc(-c3ccc(Cl)cc3)n(C3C(=O)Nc4ccc(Br)cc43)n2)cc1 (configuration not stated) | 13.2 µM | 49.3 µM | 81.1 µM | 7.53 µM | 30 µM | 58.6 µM | 8.1 µM | 65.8 µM | 24.6 µM | 12.3 µM | 67 µM | 100 µM | 7.2 µM | 78.8 µM | 36.3 µM | 9.75 µM | 64.8 µM | 28.7 µM | 7.65 µM | 61.2 µM | growth at 10 µM (CCRF-CEM): 58.6%; TGI [7]: 22.1 µM; GI50 [8]: 9.2 µM; LC50 [8]: 62.1 µM; TGI [8]: 32.3 µM; GI50 [9]: 5.48 µM; LC50 (concentration giving 50% net cell kill) [9]: 46.5 µM; TGI [9]: 16.7 µM
